Assay results as given in patent publication US9499509B2, “Dihydrochalcone derivatives and their use as antibiotic agents” (UNIVERSITÉ DU QUÉBEC À CHICOUTIMI, priority 2012, dated 2016).
Converted amounts (≈) assume the structure as drawn.

Tests used:
WS-1 cell lines = test: Cytotoxicity assay on WS-1 (Example 2); type: cell-based; set-up: unit not given here; settings: Table 7; WS-1, 48 h
Method: Cytotoxicity assay. […] The WS-1 cell lines were provided by ATCC. […] The compounds tested were then added at 8 different concentrations. […] In Table 7, the therapeutic indexes of compounds IV to XXI are presented.

MRSA strains = test: Antibiotic assay (absorption 660 nm, Example 2), MRSA strains; type: cell-based, Staphylococcus aureus
Method: (§1) Antibiotic agents. Gentamicin sulfate was provided by Calbiochem. Chloramphenicol was provided by Sigma-Aldrich.
(§2) Antibiotic assay. […] The bacteria strains were inoculated in nutrients broth. […] All bacteria were plated in nutrients broth at a concentration of 450 000 bacteria/m L.
(§3) Compounds IV to XXI were diluted in dimethylsulfoxide. […] The compounds were tested at 8 different concentrations.
(§4) Each well contained: 100 μL of bacteria, 100 μL of the compounds tested. The plates were incubated at 37° C. for 6 h. The absorption was read using a Varioskan flash multimode Reader™ (Thermo Scientific) at 660 nm.
(§5) MRSA. Ten (10) strains of MRSA obtained as described above were tested along with an S. aureus wild type (WT) strain (ATCC 25923).

[1] = system: S. aureus wild type strain (ATCC 25923); test: Antibiotic assay (absorption 660 nm, Example 2), S. aureus wild type; type: cell-based, Staphylococcus aureus; settings: for MIC: S. aureus WT (ATCC 25923); for S. aureus WT ATCC 25923 (toxicity on bacteria): Table 7, same values as MIC of Table 6
Method: as §1, §2, §3, §4, §5

| Structure (SMILES) | WS-1 (toxicity on normal cells, fibroblast) (WS-1 cell lines) | MIC (MRSA strains; MRSA 1) [µM] | MIC (MRSA strains; MRSA 2) [µM] | MIC (MRSA strains; MRSA 3) [µM] | MIC (MRSA strains; MRSA 4) [µM] | MIC (MRSA strains; MRSA 5) [µM] | MIC (MRSA strains; MRSA 6) [µM] | MIC (MRSA strains; MRSA 7) [µM] | MIC (MRSA strains; MRSA 8) [µM] | MIC (MRSA strains; MRSA 9) [µM] | MIC (MRSA strains; MRSA 10) [µM] | MIC [1] [µM] | S. aureus WT ATCC 25923 (toxicity on bacteria) [1] |
| --- | --- | --- | --- | --- | --- | --- | --- | --- | --- | --- | --- | --- | --- |
| O=C(CCc1ccccc1)c1c(O)cc(O)c2c1OC(c1ccc(O)cc1)CC2 (racemic) [IV] | 16 ± 2 | 0.84 ± 0.04 (≈ 0.328 µg/mL) | 1.50 ± 0.06 (≈ 0.586 µg/mL) | 1.02 ± 0.06 (≈ 0.398 µg/mL) | 2.6 ± 0.2 (≈ 1.02 µg/mL) | 0.95 ± 0.01 (≈ 0.371 µg/mL) | 2.11 ± 0.07 (≈ 0.824 µg/mL) | 1.22 ± 0.04 (≈ 0.476 µg/mL) | 1.35 ± 0.05 (≈ 0.527 µg/mL) | 1.32 ± 0.04 (≈ 0.515 µg/mL) | 1.23 ± 0.08 (≈ 0.48 µg/mL) | 1.27 ± 0.06 (≈ 0.496 µg/mL) | 1.27 ± 0.06 |
| COc1ccc(CCC(=O)c2c(O)cc(O)c3c2OC(c2ccc(O)cc2)CC3)cc1 (racemic) [VII] | 26 | 2.9 ± 0.1 (≈ 1.22 µg/mL) | 2.5 ± 0.1 (≈ 1.05 µg/mL) | 1.7 ± 0.1 (≈ 0.715 µg/mL) | 2.4 ± 0.2 (≈ 1.01 µg/mL) | 2.0 ± 0.1 (≈ 0.841 µg/mL) | 2.7 ± 0.1 (≈ 1.14 µg/mL) | 2.13 ± 0.02 (≈ 0.896 µg/mL) | 2.2 ± 0.5 (≈ 0.925 µg/mL) | 2.5 ± 0.2 (≈ 1.05 µg/mL) | 1.2 ± 0.2 (≈ 0.505 µg/mL) | 2.2 ± 0.2 (≈ 0.925 µg/mL) | 2.2 ± 0.2 |
| O=C(CCc1ccccc1)c1c(O)cc2c(c1O)CC(O)C(c1ccc(O)cc1)O2 (racemic) [XIII] | 10.1 ± 0.8 | 2.9 ± 0.2 (≈ 1.18 µg/mL) | 2.7 ± 0.1 (≈ 1.1 µg/mL) | 7.8 ± 0.5 (≈ 3.17 µg/mL) | 6.8 ± 0.7 (≈ 2.76 µg/mL) | 2.7 ± 0.3 (≈ 1.1 µg/mL) | 5.4 ± 0.4 (≈ 2.19 µg/mL) | 2.0 ± 0.2 (≈ 0.813 µg/mL) | 3.4 ± 0.3 (≈ 1.38 µg/mL) | 2.9 ± 0.1 (≈ 1.18 µg/mL) | 4.2 ± 0.8 (≈ 1.71 µg/mL) | 3.2 ± 0.2 (≈ 1.3 µg/mL) | 3.2 ± 0.2 |
| COc1ccc(CCC(=O)c2c(O)cc(O)c3c2OC(c2ccc(O)cc2)C(O)C3)cc1 (racemic) [XIX] | 8.2 ± 1.0 | 2.6 ± 0.1 (≈ 1.13 µg/mL) | 2.4 ± 0.1 (≈ 1.05 µg/mL) | 4.3 ± 0.4 (≈ 1.88 µg/mL) | 2.9 ± 0.6 (≈ 1.27 µg/mL) | 3.1 ± 0.6 (≈ 1.35 µg/mL) | 2.8 ± 0.2 (≈ 1.22 µg/mL) | 2.6 ± 0.1 (≈ 1.13 µg/mL) | 2.7 ± 0.2 (≈ 1.18 µg/mL) | 3.0 ± 0.3 (≈ 1.31 µg/mL) | 2.56 ± 0.04 (≈ 1.12 µg/mL) | 2.5 ± 0.1 (≈ 1.09 µg/mL) | 2.5 ± 0.1 |
| O=C(CCc1ccccc1)c1c(O)cc(O)c2c1OC(c1ccc(O)cc1)C(O)C2 (racemic) [XVI] | >50 | 5.6 ± 0.5 (≈ 2.28 µg/mL) | 4.7 ± 0.4 (≈ 1.91 µg/mL) | 5.1 ± 0.3 (≈ 2.07 µg/mL) | 5.7 ± 0.4 (≈ 2.32 µg/mL) | 4.1 ± 0.6 (≈ 1.67 µg/mL) | 5.4 ± 0.7 (≈ 2.19 µg/mL) | 3.5 ± 0.3 (≈ 1.42 µg/mL) | 5.3 ± 0.6 (≈ 2.15 µg/mL) | 4.8 ± 0.2 (≈ 1.95 µg/mL) | 3.3 ± 0.1 (≈ 1.34 µg/mL) | 5.9 ± 0.3 (≈ 2.4 µg/mL) | 5.9 ± 0.3 |
| COc1cc(O)c(C(=O)CCc2ccc(O)cc2)c2c1CCC(c1ccc(O)cc1)O2 (racemic) [X] | 16 ± 4 | 5.2 ± 0.4 (≈ 2.19 µg/mL) | 5.7 ± 0.4 (≈ 2.4 µg/mL) | 4 (≈ 1.68 µg/mL) | 3 (≈ 1.26 µg/mL) | 4 ± 2 (≈ 1.68 µg/mL) | 9 ± 1 (≈ 3.78 µg/mL) | 5.3 ± 0.2 (≈ 2.23 µg/mL) | – | 5.3 ± 0.4 (≈ 2.23 µg/mL) | 5.6 ± 0.5 (≈ 2.35 µg/mL) | 5.3 ± 0.6 (≈ 2.23 µg/mL) | 5.3 ± 0.6 |
| COc1ccc(CCC(=O)c2c(O)cc(O)c3c2O[C@@H](c2ccc(O)cc2)CC3)cc1 [IX] | >50 | 7.7 ± 0.3 (≈ 3.24 µg/mL) | 9 ± 1 (≈ 3.78 µg/mL) | 6.25 ± 0.06 (≈ 2.63 µg/mL) | 6.7 ± 0.2 (≈ 2.82 µg/mL) | 6.9 ± 0.4 (≈ 2.9 µg/mL) | 7.1 ± 0.9 (≈ 2.99 µg/mL) | 5.2 ± 0.4 (≈ 2.19 µg/mL) | 4.9 ± 0.2 (≈ 2.06 µg/mL) | 3.7 ± 0.2 (≈ 1.56 µg/mL) | 7.5 ± 0.7 (≈ 3.15 µg/mL) | 8.0 ± 0.3 (≈ 3.36 µg/mL) | 8.0 ± 0.3 |
| COc1ccc(CCC(=O)c2c(O)cc(O)c3c2O[C@H](c2ccc(O)cc2)CC3)cc1 [VIII] | >50 | >50 | >50 | >50 | >50 | >50 | >50 | >50 | >50 | >50 | >50 | >50 | >50 |
